Reference: article PMC4548311 (Journal of Biomolecular Structure & Dynamics, 2014)

Assays:
[1] = test system: influenza A virus; conditions: mouse, in vivo; cited from earlier work
[2] = test system: wt NP; assay type: biochemical
[3] = molecular target: wt NP (Influenza A virus, UniProt P15682); assay type: biochemical
[4] = molecular target: monomeric wt NP (nucleoprotein of influenza A virus) (Influenza A virus, UniProt P15682); experiment: biochemical; assay type: binding
Chain of monomeric wt NP (nucleoprotein of influenza A virus) (P15682 whole entry, looked up): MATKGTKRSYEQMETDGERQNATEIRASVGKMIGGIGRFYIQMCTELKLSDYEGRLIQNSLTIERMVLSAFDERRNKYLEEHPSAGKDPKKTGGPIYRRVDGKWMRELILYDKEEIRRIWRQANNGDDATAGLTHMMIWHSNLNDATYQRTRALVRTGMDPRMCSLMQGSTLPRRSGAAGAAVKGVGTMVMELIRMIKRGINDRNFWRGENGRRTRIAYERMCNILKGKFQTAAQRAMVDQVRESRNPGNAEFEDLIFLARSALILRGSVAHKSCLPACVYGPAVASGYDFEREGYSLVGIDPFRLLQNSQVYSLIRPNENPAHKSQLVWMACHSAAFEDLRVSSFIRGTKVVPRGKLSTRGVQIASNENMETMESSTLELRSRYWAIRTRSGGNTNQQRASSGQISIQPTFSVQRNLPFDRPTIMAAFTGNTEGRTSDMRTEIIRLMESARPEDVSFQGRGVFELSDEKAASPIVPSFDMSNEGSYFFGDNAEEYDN

Chain of wt NP (Influenza A virus, UniProt P15682) (P15682 whole entry, looked up): as above

SMILES: COc1ccc2cc([C@H](C)C(=O)O)ccc2c1 [Naproxen, naproxen]
- antiviral effects in mice [1]: antiviral effects
- lung bleeding [1]: reduced lung bleeding
- disruption of already assembled trimers [2]: could not disrupt already assembled trimers
- apparent size of the NP–RNA complex [3]: 21–23 nm
- effect on NP oligomerization into trimers–tetramers [3]: stabilized the monomeric form
- effect on RNA-free self-association of NP [3]: stabilized monomeric NP and avoided trimers/tetramers formation
- effect on dimer formation [3]: impeded dimer formation
- % Total inhibition [4]: 70 ± 7%
- inhibition at 1 µM ([4]; read-out: % Inhibition at 1 µM): 5%
